“Also recorded” adds a separate entry of the source.
Columns and labels:
Chung model rats = assay: Chung rat nerve ligation model, tactile allodynia reversal (Von Frey); type: in vivo; conditions: for long-term pain alleviation after extended dosing: gabapentin 3 mg/kg oral TID three days, amitriptyline 0.1, brimonidine 0.04, Compound 1 0.1 mg/kg/hour minipump seven days; for Peak allodynia reversal (dose): intraperitoneal injection, dose (3-300 μg/kg); for analgesia when co-administered with Compound 13 at 0.2 mg/kg/day: osmotic minipump; for analgesia, agonist given alone: peripheral (intraperitoneal) administration, clonidine 100 μg/kg, Compound 3 1 to 1000 μg/kg; for analgesia, agonist given alone / analgesia when co-administered with 0.3 μg/kg Compound 13: Compound 2 100 μg/kg; for analgesia when co-administered with 0.3 μg/kg Compound 13: intraperitoneal, clonidine 30 μg/kg; for allodynia reversal, enantiomers versus parent racemate: intraperitoneal administration, Chung model rats
Protocol: The Chung rat nerve ligation model is a well accepted model of peripheral neuropathic pain. In the Chung model, partial ligation of left spinal nerves L-5 and L-6 produces a long-lasting hypersensitivity to light touch on the affected left foot. The hypersensitivity is similar to pain experienced by humans with the neuropathic condition of causalgia (Kim and Chung, Pain 50:355-363 (1992)).
Chung rat surgeries of about 20 minutes duration were performed essentially as follows. Male Sprague-Dawley rats weighing 100 to 120 grams were anesthetized with isofluorane. After shaving and preparing the surgical site with betadine, an incision was made from thoracic vertebra XIII down toward the sacrum, and muscle separated from spinal vertebra (left side) at the L4-S2 levels. The L6 vertebra were located, and the transverse process carefully removed with a small rongeur to visually identify the L4-L6 spinal nerves. L5 and L6 spinal nerves were isolated and tightly ligated with 6-0 silk thread; the wound was sutured after complete hemostasis was confirmed. A small amount of antibiotic ointment was applied to the incised area before transferring the animals to a plastic recovery cage under a regulated heat-temperature lamp. Animals were not treated with any topical or local anesthetics post-operatively.
Assessment of pain in Chung model rats was performed by applying a light tactile stimulus (Von Frey hair) to the affected surgical paw as follows. A 50% pain threshold was established by applying the Von Frey hair in an up-and-down manner to the plantar surface of the surgical paw with just enough force to bend them. A positive response was recorded if the paw was withdrawn sharply. The 50% paw withdrawal threshold was determined using the method of Dixon et al., Ann. Rev. Pharmacol. Toxicol. 20:441-462 (1980). The post-drug threshold was compared to the pre-drug threshold, and the precent reversal of tactile sensitivity calculated based on a normal threshold of 15.1 grams. The results were expressed as % allodynia reversal, reflecting the percentage reversal of pain threshold relative to a normal rat (100%).
Chung surgeries were performed, and pain assessed as described above. Drugs administered via osmotic minipump were delivered as follows. ALZET (Cupertino, Calif.) minipumps (Model #1007D) were implanted subcutaneously on the rats' back between the shoulder blades. Pumps were filled with test solution prior to surgery, which was performed with aseptic procedures and sterilized surgical instruments. After anesthetization with isoflorane and midline incision between the shoulder blades through the muscle, a subcutaneous pocket was exposed. The minipump was inserted into the exposed pocket, before stapling the wounds closed and allowing animals to recover under a warming light.
ALZET osmotic minipumps (model 1007D) hold a total volume of 100 μl and delivered drug at the set rat of 0.5 μl per hour the indicated time period. Drugs were administered at the indicated rate, typically 100 μg/hr/kg, dissolved in 50% DMSO, with the concentration of drug in the pump varied depending on animal weight. […]

[1] = tested on: sulprostone-sensitized wild type mice; assay: Sulprostone sensitized pain (allodynia), wild type mice; type: in vivo, mouse
Protocol: Non-specific α-adrenergic agonists were assayed in α-2A receptor deficient (“knockout”) mice (Hein et al., supra, 1999) using a mouse model of sulprostone sensitized pain in which allodynia is evoked by intrathecal administration of a selective prostaglandin E2 receptor agonist to conscious mice essentially as described in Minami et al., Pain 57:217-223 (1994). In this model, the pain response to stroking the flank with a paint brush is scored eight times over a 35 minute period starting 15 minutes following spinal administration of sulprostone and intrathecal or intraperitoneal administration of drug or control vehicle. Sulprostone elicits a “pain” score of 12-13 on a 16-point scale.
(§1) Assays for allodynia in wild type and α-2A knockout mice were performed essentially according to the method of Yaksh and Harty, J. Pharmacology Exp. Ther. 244: 501-507 (1998). In brief, mice were divided into groups of 5-6 animals. Control mice were administered 5 ul DMSO while treated animals were injected with 5 ul DMSO containing various doses of the indicated agent. After intrathecal injection, each mouse was placed in an individual 13×8.5×13 cm Plexiglass enclosure with wood chips on the floor for observation. Allodynia was assessed once every five minutes over a 50 minute time period, with response recorded eight times in the 15 to 50 minute time frame. Allodynia was assessed by light stroking of the flank of the mice with a small paintbrush and ranked as follows: 0, no response; 1, mild squeaking with attempts to move away from the stroking probe; and 2, vigorous squeaking evoked by the stroking probe, biting at the probe and strong efforts to escape. The eight scores for each animal were added together, and the mean for the group determined to give an average total score.

[2] = tested on: sulprostone-sensitized α-2A knockout mice; assay: Sulprostone sensitized pain (allodynia), α-2A knockout mice; type: in vivo, mouse
Protocol: as §1, with “In” for “Assays for allodynia in wild type and α-2A knockout mice were performed essentially according to the method of Yaksh and Harty, J. Pharmacology Exp. Ther. 244: 501-507 (1998). In”

[3] = tested on: α-2B heterozygous (−/+) and homozygous (−/−) knockout mice; assay: Sulprostone sensitized pain (allodynia), α-2B knockout mice; type: in vivo, mouse; conditions: intraperitoneal; heterozygous and homozygous α-2B knockout; clonidine 500 ug/kg, Compound 3 100 ug/kg
Male Sprague-Dawley rats = assay: Sedative effects in rats (total activity, digicom analyzer chamber); type: in vivo, rat
Protocol: (§2) Sedative effects were analyzed by assessing exploratory behavior in a darkened chamber as follows. Mice were weighed, and test compound administered by intrathecal injection in a volume of 5 μl or by intraperitoneal injection in 1 ml/kg volume at the indicated dose. At predetermined time points corresponding with analgesia measurements 5 to 30 minutes following the injection, the animal's activity was determined automatically by placing the mouse in a digicom analyzer chamber (Omnitech Electronic; Columbus, Ohio). The digicom analyzer chamber contains photocell beams criss-crossing the box that are broken as the animal moves around; the chamber was modified for mice by raising the level of the floor. Computer analysis of total animal movement proceeded over a 5-minute time period. Any given animal was used at most twice for this protocol, as learned behavior can affect the data. All animals received at least two weeks rest between studies.
Male Sprague-Dawley rats that were not subject to surgery were used for assessment of sedative effects. Rats were weighed and compound administered by intravenous or intraperitoneal injection or given orally at the indicated dose. At a predetermined time point 5 to 30 minutes following injection, the animal's activity was determined automatically by placing the rat in a digicom analyzer chamber (Omnitech Electronic). Total activity was analyzed as described above.

mice = assay: Sedative effects in mice (exploratory activity, digicom analyzer chamber); type: in vivo, mouse; conditions: intraperitoneal, wild type mice; clonidine 500 ug/kg, Compound 3 100 ug/kg
Protocol: as §2

[4] = intraperitoneal injection, wild type mice (Compound 1 30 μg/kg; Compound 2 100 μg/kg)
[5] = intrathecal injection (Compound 1: 1 μg), wild type mice
[6] = intraperitoneal, α-2A knockout mice (Compound 1 30 μg/kg; Compound 2 and PAC 100 μg/kg)
[7] = intrathecal injection (Compound 1: 1 μg), α-2A knockout mice
[8] = rauwolscine 0.3 μg/kg i.p., Compound 8 by osmotic minipump
[9] = subcutaneous osmotic minipump 0.1 mg/kg/hour, seven days

CN(C)CCC=C1c2ccccc2CCc2ccccc21 [amitriptyline, reference compound]
long-term pain alleviation after extended dosing (Chung model rats): the allodynia returned completely prior to or following cessation of treatment

Fc1ccc(Br)c(CNC2=NCCO2)c1 [Compound 14]
Peak allodynia reversal (dose) (Chung model rats): 77% +/− 6.2%

Cc1c(N=C2NCCN2)ccc2c1NCCO2 [Compound 1]
long-term pain alleviation after extended dosing (Chung model rats): the allodynia returned completely prior to or following cessation of treatment
analgesia when co-administered with Compound 13 at 0.2 mg/kg/day (Chung model rats; Chung rats): greater analgesia was observed during the dosing period, and this analgesic effect continued after completion of drug administration
analgesia, agonist given alone (Chung model rats; Chung rats): neither compound was significantly analgesic at non-sedating doses
analgesia [1, 4]: failed to produce analgesia separable from sedation
analgesia [1, 5]: significant analgesia separable from sedation
analgesia [2, 6]: significant analgesia without sedation
analgesia [2, 7]: did not produce analgesia

Clc1cccc(CNC2=NCCS2)c1Cl [Compound 5]
Peak allodynia reversal (dose) (Chung model rats): 77% +/− 8.3%

COC(=O)[C@H]1[C@H]2C[C@H]3c4[nH]c5ccccc5c4CCN3C[C@H]2CC[C@@H]1O [rauwolscine, reference compound]
inhibition of the analgesic activity of Compound 8, fourth day of treatment (Chung model rats; [8]): not on the fourth day
inhibition of the analgesic activity of Compound 8, third day of treatment (Chung model rats; [8]): inhibited the analgesic activity of Compound 8 when injected on the third day
effect on the analgesic effect of PAC (100 μg/kg i.p.) ([2]; rauwolscine 0.3 μg/kg intraperitoneal, α-2A knockout mice): blocked

Cc1cccc(CNC(=S)NCCO)c1F [Compound 7]
Peak allodynia reversal (dose) (Chung model rats): 60% +/− 8.0%

CCC1=CC(Cc2c[nH]cn2)CCC1 (stereo not drawn) [Compound 9]
allodynia alleviated during the period of drug treatment (Chung model rats; [9]): 60-80%
persistence of analgesic effects after treatment (Chung model rats; [9]): continued for over a month after treatment was concluded

Brc1c(NC2=NCCN2)ccc2nccnc12 [brimonidine]
long-term pain alleviation after extended dosing (Chung model rats): the allodynia returned completely prior to or following cessation of treatment
analgesia when co-administered with Compound 13 at 0.2 mg/kg/day (Chung model rats; Chung rats): greater analgesia was observed during the dosing period, and this analgesic effect continued after completion of drug administration
analgesia [1, 4]: failed to produce analgesia separable from sedation
analgesia [1, 5]: significant analgesia separable from sedation
analgesia [2, 6]: significant analgesia without sedation
analgesia [2, 7]: did not produce analgesia
analgesic effect in α-2B knockout mice [3]: analgesic

NCC1(CC(=O)O)CCCCC1 [gabapentin, reference compound]
long-term pain alleviation after extended dosing (Chung model rats): the allodynia returned completely prior to or following cessation of treatment

Fc1c(Cl)cccc1CNC1=NCCO1 [Compound 6]
Peak allodynia reversal (dose) (Chung model rats): 92% +/− 5.2%

CC1=CCCC1Cc1c[nH]c(=S)[nH]1 (stereo not drawn) [Compound 2]
analgesia when co-administered with 0.3 μg/kg Compound 13 (Chung model rats; Chung rats): significant analgesia
analgesia, agonist given alone (Chung model rats; Chung rats): not analgesic
analgesia [1, 4]: not analgesic
sedative effects (Male Sprague-Dawley rats; 100 μg/kg Compound 2 co-administered with 0.3 μg/kg Compound 13): no significant sedative effects
analgesia [2, 6]: fully analgesic

O=c1[nH]cc(C[C@H]2CCc3cc(F)ccc32)[nH]1 [Compound 12]
allodynia reversal, enantiomers versus parent racemate (Chung model rats): at least as effective as the parent compound in reducing allodynia at all doses tested

Nc1cc(Cl)c(N=C2NCCN2)c(Cl)c1 [PAC, para-amino clonidine, reference compound]
analgesia, agonist given alone (Chung model rats; Chung rats): neither compound was significantly analgesic at non-sedating doses
analgesia [2, 6]: analgesic

O=C1c2ccccc2CCC1Cc1c[nH]c(=S)[nH]1 (stereo not drawn) [Compound 10]
allodynia reversal, enantiomers versus parent racemate (Chung model rats): allodynia reversal was obtained; also recorded: as effective as parent racemic mixture in relieving pain

Clc1cccc(Cl)c1N=C1NCCN1 [clonidine, reference compound]
analgesia when co-administered with 0.3 μg/kg Compound 13 (Chung model rats; Chung rats): dramatic allodynia reversal
analgesia (Chung model rats; intrathecal injection, Chung rats): significant analgesia separable from sedation
analgesia [1, 4]: failed to produce analgesia separable from sedation
sulprostone-induced tactile allodynia ([1]; intraperitoneal, wild type mice, clonidine 500 ug/kg, Compound 3 100 ug/kg): alleviated sulprostone-induced tactile allodynia
analgesia [1, 5]: significant analgesia separable from sedation
sedation (activity) (Male Sprague-Dawley rats; clonidine 30 μg/kg intraperitoneal): reduces activity
sedation (Male Sprague-Dawley rats; clonidine 100 μg/kg intraperitoneal): extremely sedating
analgesia [2, 6]: significant analgesia without sedation
analgesia [2, 7]: did not produce analgesia
concomitant sedation (mice): produced concomitant sedation
analgesic effect in α-2B knockout mice [3]: alleviated the analgesia in both heterozygous and homozygous α-2B knockout strains
